From the NIST ThermoML archive (doi:10.1016/j.jct.2015.10.001)

Experiment: mn = molality of the nth substance listed, in mol/kg
Conditions: 100 kPa, Liquid; for electrical conductivity: Direct current cell with electrodes; for mass density: Vibrating tube method; for viscosity: Capillary tube (Ostwald / Ubbelohde) method

CCCCn1cc[n+](C)c1.O=C([O-])c1ccccc1O [1-butyl-3-methylimidazolium salicylate] + O
Conditions	electrical conductivity [S/m]	mass density [kg/m3]	viscosity [mPa·s]
303.15 K, m1 = 0.00579	–	995.88	–
303.15 K, m1 = 0.007	–	995.93	–
303.15 K, m1 = 0.008	0.0559	–	–
303.15 K, m1 = 0.00801	–	995.97	–
303.15 K, m1 = 0.01	0.0659	–	–
303.15 K, m1 = 0.01056	–	996.07	–
303.15 K, m1 = 0.01278	–	996.17	–
303.15 K, m1 = 0.0144	0.0871	–	–
303.15 K, m1 = 0.0158	–	996.29	–
303.15 K, m1 = 0.01707	–	996.35	–
303.15 K, m1 = 0.02056	–	996.5	–
303.15 K, m1 = 0.0221	0.118	–	–
303.15 K, m1 = 0.02523	–	996.7	–
308.15 K, m1 = 0.001	0.0099	–	–
308.15 K, m1 = 0.0037	0.0328	–	–
308.15 K, m1 = 0.00579	–	994.27	–
308.15 K, m1 = 0.0058	–	–	0.765
308.15 K, m1 = 0.0062	0.0501	–	–
308.15 K, m1 = 0.007	–	994.32	–
308.15 K, m1 = 0.0071	–	–	0.77
308.15 K, m1 = 0.0072	0.057	–	–
308.15 K, m1 = 0.008	0.0623	–	–
308.15 K, m1 = 0.00801	–	994.36	–
308.15 K, m1 = 0.01	0.0745	–	–
308.15 K, m1 = 0.01056	–	994.46	–
308.15 K, m1 = 0.0117	–	–	0.787
308.15 K, m1 = 0.01278	–	994.55	–
308.15 K, m1 = 0.0144	0.0986	–	–
308.15 K, m1 = 0.0158	–	994.68	–
308.15 K, m1 = 0.01707	–	994.74	–
308.15 K, m1 = 0.0205	–	–	0.811
308.15 K, m1 = 0.02056	–	994.89	–
308.15 K, m1 = 0.0221	0.133	–	–
308.15 K, m1 = 0.02523	–	995.09	–
308.15 K, m1 = 0.0353	–	–	0.845
308.15 K, m1 = 0.0384	–	–	0.851
308.15 K, m1 = 0.0552	–	–	0.882
308.15 K, m1 = 0.0765	–	–	0.916
313.15 K, m1 = 0.001	0.011	–	–
313.15 K, m1 = 0.0037	0.0362	–	–
313.15 K, m1 = 0.00579	–	992.45	–
313.15 K, m1 = 0.0058	–	–	0.701
313.15 K, m1 = 0.0062	0.0551	–	–
313.15 K, m1 = 0.007	–	992.5	–
313.15 K, m1 = 0.0071	–	–	0.707
313.15 K, m1 = 0.0072	0.0629	–	–
313.15 K, m1 = 0.008	0.0686	–	–
313.15 K, m1 = 0.00801	–	992.54	–
313.15 K, m1 = 0.01	0.0826	–	–
313.15 K, m1 = 0.01056	–	992.64	–
313.15 K, m1 = 0.0117	–	–	0.723
313.15 K, m1 = 0.01278	–	992.73	–
313.15 K, m1 = 0.0144	0.111	–	–
313.15 K, m1 = 0.0158	–	992.86	–
313.15 K, m1 = 0.01707	–	992.91	–
313.15 K, m1 = 0.0205	–	–	0.749
313.15 K, m1 = 0.02056	–	993.06	–
313.15 K, m1 = 0.0221	0.149	–	–
313.15 K, m1 = 0.02523	–	993.26	–
313.15 K, m1 = 0.0353	–	–	0.783
313.15 K, m1 = 0.0384	–	–	0.789
313.15 K, m1 = 0.0552	–	–	0.819
313.15 K, m1 = 0.0765	–	–	0.853
